Measurements as given in PubChem BioAssay AID330 (DTP/NCI, 2004).
Where “and” joins values, the source holds several entries; their conditions need not be identical. Equal entries are not always repeated. Inconclusive results and toxic doses are left out. The calls were made as follows: active = survival T/C of 150% or more; inactive = T/C below 125% in these data.

Tested on: P388 leukemia ip, CD2F1 mice, survival T/C
Experiment: NCI In Vivo Anticancer Drug Screen. Data for tumor model P388 Leukemia (intraperitoneal) in CD2F1 (CDF1) mice
Conditions: endpoint: median survival time, higher = longer survival
Outline: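 Mice carrying the transplanted tumor received test compound or vehicle. Survival was recorded in each group, and the value is the treated-group measurement divided by that of the vehicle-treated control group.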

[1] = dose: 50.0 mg/kg/injection, schedule: Q01DX009 (ip), vehicle: Klucel (hydroxypropylcellulose) (HPC)
[2] = dose: 100.0 mg/kg/injection, schedule: Q01DX009 (ip), vehicle: Klucel (hydroxypropylcellulose) (HPC)
[3] = dose: 200.0 mg/kg/injection, schedule: Q01DX009 (ip), vehicle: Klucel (hydroxypropylcellulose) (HPC)
[4] = dose: 60.0 mg/kg/injection, schedule: Q01DX005 (ip), vehicle: Klucel (hydroxypropylcellulose) (HPC)
[5] = dose: 120.0 mg/kg/injection, schedule: Q01DX005 (ip), vehicle: Klucel (hydroxypropylcellulose) (HPC)
[6] = dose: 240.0 mg/kg/injection, schedule: Q01DX005 (ip), vehicle: Klucel (hydroxypropylcellulose) (HPC)
[7] = dose: 100.0 mg/kg/injection, schedule: Q04DX003 (ip), vehicle: saline
[8] = dose: 200.0 mg/kg/injection, schedule: Q04DX003 (ip), vehicle: saline
[9] = dose: 400.0 mg/kg/injection, schedule: Q04DX003 (ip), vehicle: saline
[10] = dose: 50.0 mg/kg/injection, schedule: Q01DX005 (ip), vehicle: Klucel (hydroxypropylcellulose) (HPC)
[11] = dose: 100.0 mg/kg/injection, schedule: Q01DX005 (ip), vehicle: Klucel (hydroxypropylcellulose) (HPC)
[12] = dose: 200.0 mg/kg/injection, schedule: Q01DX005 (ip), vehicle: Klucel (hydroxypropylcellulose) (HPC)
[13] = dose: 50.0 mg/kg/injection, schedule: Q01DX009 (ip), vehicle: saline
[14] = dose: 50.0 mg/kg/injection, schedule: Q01DX009 (ip), vehicle: saline with Tween-80
[15] = dose: 100.0 mg/kg/injection, schedule: Q01DX009 (ip), vehicle: saline with Tween-80
[16] = dose: 200.0 mg/kg/injection, schedule: Q01DX009 (ip), vehicle: saline with Tween-80

Measured: T/C

CCn1c(=O)c2[nH]c(Cl)nc2n(CCOC)c1=O
inactive: [1] 116 % of control | [2] 96 % of control | [3] 111 % of control

CC(C)=NOC(=O)Nc1ccc(F)cc1
inactive: [4] 93 % of control | [5] 103 % of control | [6] 106 % of control

CCc1nc2cc(C)ncn2n1
inactive: [7] 100 % of control | [8] 96 % of control | [9] 101 % of control

COc1ccc2ncc(COC(C)=O)c(C)c2c1
inactive: dose: 50.0 mg/kg/injection, schedule: Q01DX005 (ip), vehicle: saline with Tween-80 99 % of control | dose: 100.0 mg/kg/injection, schedule: Q01DX005 (ip), vehicle: saline with Tween-80 99 % of control | dose: 200.0 mg/kg/injection, schedule: Q01DX005 (ip), vehicle: saline with Tween-80 93 % of control

CC(=O)N1c2ccccc2Sc2cc(C(O)(C(F)(F)F)C(F)(F)F)ccc21
inactive: dose: 25.0 mg/kg/injection, schedule: Q04DX003 (ip), vehicle: saline with Tween-80 95 % of control | dose: 50.0 mg/kg/injection, schedule: Q04DX003 (ip), vehicle: saline with Tween-80 100 % of control | dose: 100.0 mg/kg/injection, schedule: Q04DX003 (ip), vehicle: saline with Tween-80 100 % of control

CC(C)CC(CO)Cc1nc2ccccc2[nH]1 (stereo unspecified)
inactive: dose: 60.0 mg/kg/injection, schedule: Q01DX005 (ip), vehicle: saline with Tween-80 114 % of control | dose: 120.0 mg/kg/injection, schedule: Q01DX005 (ip), vehicle: saline with Tween-80 105 % of control

COc1ccc(C(=O)c2ccccc2)c(C(=O)O)c1
inactive: [10] 101 % of control | [11] 97 % of control | [12] 104 % of control

CC(=O)N/C(=C/c1ccccc1)C(=O)N1CCCC1C(=O)O (stereo unspecified)
inactive: dose: 12.5 mg/kg/injection, schedule: Q01DX009 (ip), vehicle: saline 105 % of control | dose: 25.0 mg/kg/injection, schedule: Q01DX009 (ip), vehicle: saline 104 % of control | [13] 96 % of control

COc1ccc(C2CN(C(=O)c3ccccc3)N=C(c3ccccc3)O2)cc1 (stereo unspecified)
inactive: [10] 100 % of control | [11] 101 % of control | [12] 94 % of control

CCCCCCCCCCCC#N
inactive: [7] 108 % of control | [8] 104 % of control | [9] 116 % of control

C/C=C(\C)C(=O)N/N=C\c1cc(Cl)cc(Cl)c1O
inactive: dose: 12.5 mg/kg/injection, schedule: Q01DX009 (ip), vehicle: olive oil, sesame oil, peanut oil 106 % of control | dose: 25.0 mg/kg/injection, schedule: Q01DX009 (ip), vehicle: olive oil, sesame oil, peanut oil 98 % of control | dose: 50.0 mg/kg/injection, schedule: Q01DX009 (ip), vehicle: olive oil, sesame oil, peanut oil 106 % of control | dose: 100.0 mg/kg/injection, schedule: Q01DX009 (ip), vehicle: olive oil, sesame oil, peanut oil 102 % of control | dose: 200.0 mg/kg/injection, schedule: Q01DX009 (ip), vehicle: olive oil, sesame oil, peanut oil 96 % of control | dose: 400.0 mg/kg/injection, schedule: Q01DX009 (ip), vehicle: olive oil, sesame oil, peanut oil 93 % of control

COC(=O)c1c(-c2ccccc2)c(-c2ccccc2)nn(-c2ccccc2)c1=O
inactive: dose: 50.0 mg/kg/injection, schedule: Q01DX001 (ip), vehicle: saline with Tween-80 100 % of control and 102 % of control | dose: 100.0 mg/kg/injection, schedule: Q01DX001 (ip), vehicle: saline with Tween-80 99 % of control and 100 % of control | dose: 200.0 mg/kg/injection, schedule: Q01DX001 (ip), vehicle: saline with Tween-80 92 % of control and 97 % of control | dose: 400.0 mg/kg/injection, schedule: Q01DX001 (ip), vehicle: saline with Tween-80 87 % of control and 90 % of control

CCCCOC(=O)CC(O)C(=O)OCCCC (stereo unspecified)
inactive: [14] 109 % of control | [15] 119 % of control | [16] 114 % of control

N#Cc1ccc[n+](CC(=O)c2ccc3ccccc3c2)c1
inactive: dose: 6.25 mg/kg/injection, schedule: Q01DX005 (ip), vehicle: Klucel (hydroxypropylcellulose) (HPC) 103 % of control | dose: 12.5 mg/kg/injection, schedule: Q01DX005 (ip), vehicle: Klucel (hydroxypropylcellulose) (HPC) 103 % of control | dose: 25.0 mg/kg/injection, schedule: Q01DX005 (ip), vehicle: Klucel (hydroxypropylcellulose) (HPC) 100 % of control

COC(=O)c1cc(Cl)ccc1OS(N)(=O)=O
inactive: [4] 103 % of control | [5] 102 % of control | [6] 97 % of control

Cc1cc(O)c(NCCCN(C)C)c2c(=O)c3ccccc3sc12
inactive: dose: 25.0 mg/kg/injection, schedule: Q01DX009 (ip), vehicle: saline with Tween-80 97 % of control | [14] 93 % of control | [15] 110 % of control

Nc1nc(N)c2nc(/C(Cl)=N/O)cnc2n1
inactive: dose: 20.0 mg/kg/injection, schedule: Q01DX009 (ip), vehicle: saline 108 % of control | dose: 40.0 mg/kg/injection, schedule: Q01DX009 (ip), vehicle: saline 105 % of control | dose: 80.0 mg/kg/injection, schedule: Q01DX009 (ip), vehicle: saline 103 % of control

CC(C)(C)c1cc(C(C)(C)O)c2c(c1)C(C)(C)OS2(=O)=O
inactive: dose: 100.0 mg/kg/injection, schedule: Q04DX002 (ip), vehicle: Klucel (hydroxypropylcellulose) (HPC) 96 % of control | dose: 200.0 mg/kg/injection, schedule: Q04DX002 (ip), vehicle: Klucel (hydroxypropylcellulose) (HPC) 87 % of control | dose: 400.0 mg/kg/injection, schedule: Q04DX002 (ip), vehicle: Klucel (hydroxypropylcellulose) (HPC) 97 % of control

Cc1ccccc1C(=O)c1cc(Br)ccc1[N+](=O)[O-]
inactive: [13] 91 % of control | dose: 100.0 mg/kg/injection, schedule: Q01DX009 (ip), vehicle: saline 100 % of control | dose: 200.0 mg/kg/injection, schedule: Q01DX009 (ip), vehicle: saline 100 % of control

c1csc(NC(Nc2nccs2)C23CC4CC(CC(C4)C2)C3)n1
inactive: [14] 96 % of control | [15] 101 % of control | [16] 100 % of control

N#CC(C#N)=C(c1ccccc1)c1ccccc1
inactive: [1] 95 % of control | [2] 110 % of control | [3] 100 % of control

CN(C)CCOCC(O)(c1ccccc1)c1ccccc1
inactive: dose: 50.0 mg/kg/injection, schedule: Q01DX009 (ip), vehicle: suspension in saline 100 % of control | dose: 100.0 mg/kg/injection, schedule: Q01DX009 (ip), vehicle: suspension in saline 103 % of control

C=CCC1=C(CC)C(=O)c2ccccc2C1=O
inactive: [10] 100 % of control | [11] 100 % of control | [12] 111 % of control
